Source: patent US8481544B2, “Antibacterial compositions” (Biota Europe Limited, priority 2006, dated 2013)

Columns and labels:
Format in all cases: cell-based
[1] = test system: Enterococcus faecalis ATCC 29212; assay: MIC against Enterococcus faecalis ATCC 29212; conditions: Enterococcus faecalis, ATCC29212; ATCC 29212; Table 5; read-out: MIC against Enterococcus faecalis (Activity)
Outline: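 MIC measured by broth microdilution or agar dilution following CLSI guidelines (M7-A7 for aerobes, M11-A6 for anaerobes).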

[2] = test system: Enterococcus faecalis (VRE) ATCC 51299; assay: MIC against Enterococcus faecalis (VRE) ATCC 51299; conditions: Enterococcus faecalis (VRE) ATCC 51299; read-out: MIC Activity
[3] = test system: Staphylococcus epidermidis ATCC 12228; assay: MIC against Staphylococcus epidermidis ATCC 12228; conditions: ATCC12228; Staphylococcus epidermidis ATCC 12228; read-out: MIC Activity
[4] = test system: Staphylococcus aureus ATCC 29213; assay: MIC against Staphylococcus aureus ATCC 29213; conditions: ATCC29213; Staphylococcus aureus ATCC 29213; read-out: MIC Activity
[5] = test system: Enterococcus faecium (VRE) ATCC 700221; assay: MIC against Enterococcus faecium (VRE) ATCC 700221; conditions: Enterococcus faecium (VRE) ATCC 700221; read-out: MIC Activity
[6] = test system: Streptococcus pneumoniae ATCC 49619; assay: MIC against Streptococcus pneumoniae ATCC 49619; conditions: ATCC49619
[7] = test system: Enterococcus faecium (VSE) ATCC 19434; assay: MIC against Enterococcus faecium (VSE) ATCC 19434; conditions: ATCC19434; Enterococcus faecium (VSE) ATCC 19434; read-out: MIC Activity
[8] = test system: Streptococcus mutans ATCC 35668; assay: MIC against Streptococcus mutans ATCC 35668; conditions: ATCC35668; Streptococcus mutans ATCC 35668; read-out: MIC Activity
[9] = test system: Streptococcus pyogenes ATCC 51339; assay: MIC against Streptococcus pyogenes ATCC 51339; conditions: ATCC51339; Streptococcus pyogenes ATCC 51339; read-out: MIC Activity
[10] = test system: Moraxella catarrhalis ATCC 25240; assay: MIC against Moraxella catarrhalis ATCC 25240; conditions: ATCC25240; Moraxella catarrhalis ATCC 25240; read-out: MIC Activity
[11] = test system: Streptococcus agalactiae ATCC 13813; assay: MIC against Streptococcus agalactiae ATCC 13813; conditions: ATCC13813
[12] = test system: Staphylococcus haemolyticus ATCC 29970; assay: MIC against Staphylococcus haemolyticus ATCC 29970; conditions: ATCC29970; Staphylococcus haemolyticus ATCC 29970; read-out: MIC Activity

Measured: MIC

CCNC(=O)Nc1nc2cc(-c3cccnc3)nc(-c3cccnc3)c2s1 [Example 180, 1-(4,6-Di-pyridin-3-yl-thiazolo[5,4-c]pyridin-2-yl)-3-ethyl-urea]
2 to 16 µg/mL: [4] | [5] | [7] | [9]
0.25 to 1 µg/mL: all other assays above
